Assay results from US4542021A, “Antitumor compositions for non-injection administration” (Yamasa Shoyu Kabushiki Kaisha, priority 1978, dated 1985).
Read-outs that look alike come from different tables or passages of the source.

Columns and labels:
B16 melanoma = assay: Effectiveness against B16 melanoma (oral, 3 times a week); assay type: in vivo, BDF1 mice
Protocol: The B16 melanoma cells (1×10^6 cells) were implanted to the right side-abdominal hypoderms of BDF1 mice (male, 18 to 22 g). From the 13th day after the implantation to death the compounds to be tested were administered orally 3 times a week. The compounds to be tested were dissolved in a phosphate-buffered salt solution (PBS) containing 0.5% carboxymethyl-cellulose to a suitable concentration, and given to the mice at a dose rate of 0.1 ml per 10 g of each mouse's body weight. The increases in life span (%ILS) were calculated in accordance with the same formula as described in Test Example 1.

L1210 leukemia = assay: Therapeutic test on L1210 leukemia (oral, once a day); assay type: in vivo, BDF1 mice; settings: Mus musculus, read-out: % ILS (increase in life span)
Protocol: The L1210 leukemic cell suspension (1×10^5 cells/0.2 ml) was implanted intraperitoneally in BDF1 mice (males, 18 to 22 g, females, 16 to 20 g) (7 mice per group). From 24 hours after the implantation to the 5th day thereafter, the predetermined doses of the compounds to be tested were orally administered to the mice consecutively once a day. The compounds to be tested were dissolved or suspended in a phosphate-bufferedsalt solution (PBS) containing 0.5% carboxymethylcellulose, and given at a dose rate of 0.1 ml per 10 g of each mouse's body weight. To a control group, only the same solvent as used for the dissolution of the compounds to be tested was administered in the same way. The mean survival times (MST) for each group were calculated, and the corresponding increase in life span (%ILS) was obtained in accordance with the following formula, the results of which are shown in Table 1. [formula]

[1] = L1210, 720 h, oral, 100 mg/kg/day, > means some mice survived the test period (30 days)
[2] = L1210, 720 h, oral, 200 mg/kg/day, > means some mice survived the test period (30 days)
[3] = L1210, 720 h, oral, 400 mg/kg/day, > means some mice survived the test period (30 days)

O=c1[nH]cc(F)c(=O)[nH]1 [5-fluorouracil]
Increase in life span (% ILS) (B16 melanoma; 25 mg/kg): 0% | Mean survival time (MST ± SE) (B16 melanoma; 25 mg/kg): 22.0 ± 1.45 | Mean survival time (MST ± SE) (B16 melanoma; 50 mg/kg): 25.0 ± 2.26 | Increase in life span (% ILS) (B16 melanoma; 50 mg/kg, * level of significance at 0.05% or lower): 14% | Increase in life span (% ILS) (B16 melanoma; 100 mg/kg): -11% | Mean survival time (MST ± SE) (B16 melanoma; 100 mg/kg): 19.6 ± 0.98

CCCCCCCCCCCCCCOP(=O)(O)OC[C@H]1O[C@@H](n2ccc(N)nc2=O)[C@@H](O)[C@@H]1O [C14-ara-CMP ester, ara-CMP-tetradecyl ester]
ILS at 100 mg/kg/day (L1210 leukemia; [1]): 88% | ILS at 200 mg/kg/day (L1210 leukemia; [2]): 105% | ILS at 400 mg/kg/day (L1210 leukemia; [3]): 134% | ILS at 50 mg/kg/day (L1210 leukemia; L1210, oral): 62%

CCCCCCCCCCCCCCCOP(=O)(O)OC[C@H]1O[C@@H](n2ccc(N)nc2=O)[C@@H](O)[C@@H]1O [C15-ara-CMP ester, ara-CMP-pentadecyl ester]
ILS at 100 mg/kg/day (L1210 leukemia; [1]): 95% | ILS at 200 mg/kg/day (L1210 leukemia; [2]): 135% | ILS at 50 mg/kg/day (L1210 leukemia; L1210, oral): 70%

CCCCCCCCCCCCCCCCCOP(=O)(O)OC[C@H]1O[C@@H](n2ccc(N)nc2=O)[C@@H](O)[C@@H]1O [C17-ara-CMP ester, ara-CMP-heptadecyl ester]
ILS at 100 mg/kg/day (L1210 leukemia; [1]): 123% | ILS at 200 mg/kg/day (L1210 leukemia; [2]): > 154% | ILS at 400 mg/kg/day (L1210 leukemia; [3]): -15% | ILS at 6.25 mg/kg/day (L1210 leukemia; L1210, oral, 6.25 mg/kg/day): 11% | ILS at 12.5 mg/kg/day (L1210 leukemia; L1210, oral): 32% | ILS at 25 mg/kg/day (L1210 leukemia; L1210, oral): 52% | ILS at 50 mg/kg/day (L1210 leukemia; L1210, oral): 87%

CCCCCCCCCCCCCCCCCCCCCCCOP(=O)(O)OC[C@H]1O[C@@H](n2ccc(N)nc2=O)[C@@H](O)[C@@H]1O [C23-ara-CMP ester, ara-CMP-tricosyl ester]
ILS at 100 mg/kg/day (L1210 leukemia; [1]): 81% | ILS at 200 mg/kg/day (L1210 leukemia; [2]): 110% | ILS at 400 mg/kg/day (L1210 leukemia; [3]): 128% | ILS at 12.5 mg/kg/day (L1210 leukemia; L1210, oral): 29% | ILS at 25 mg/kg/day (L1210 leukemia; L1210, oral): 51% | ILS at 50 mg/kg/day (L1210 leukemia; L1210, oral): 65%

CCCCCCCCCCOP(=O)(O)OC[C@H]1O[C@@H](n2ccc(N)nc2=O)[C@@H](O)[C@@H]1O [ara-CMP decyl ester, reference compound]
ILS at 100 mg/kg/day (L1210 leukemia; [1]): 8% | ILS at 200 mg/kg/day (L1210 leukemia; [2]): 36% | ILS at 400 mg/kg/day (L1210 leukemia; [3]): 39% | ILS at 25 mg/kg/day (L1210 leukemia; L1210, oral): 0% | ILS at 50 mg/kg/day (L1210 leukemia; L1210, oral): 4%

CCCCCCCCCCCCCCCCCCCCCCCCCCOP(=O)(O)OC[C@H]1O[C@@H](n2ccc(N)nc2=O)[C@@H](O)[C@@H]1O [ara-CMP hexacosyl ester, reference compound]
ILS at 100 mg/kg/day (L1210 leukemia; [1]): 27% | ILS at 200 mg/kg/day (L1210 leukemia; [2]): 52% | ILS at 400 mg/kg/day (L1210 leukemia; [3]): 86% | ILS at 25 mg/kg/day (L1210 leukemia; L1210, oral): 14% | ILS at 50 mg/kg/day (L1210 leukemia; L1210, oral): 23%

COP(=O)(O)OC[C@H]1O[C@@H](n2ccc(N)nc2=O)[C@@H](O)[C@@H]1O [ara-CMP methyl ester, reference compound]
ILS at 100 mg/kg/day (L1210 leukemia; L1210, po, 720 h): 13% | ILS at 200 mg/kg/day (L1210 leukemia; L1210, po, 720 h): 48% | ILS at 400 mg/kg/day (L1210 leukemia; L1210, po, 720 h): 65%

CCCCCCCCCCCOP(=O)(O)OC[C@H]1O[C@@H](n2ccc(N)nc2=O)[C@@H](O)[C@@H]1O [ara-CMP undecyl ester, reference compound]
ILS at 100 mg/kg/day (L1210 leukemia; [1]): 31% | ILS at 200 mg/kg/day (L1210 leukemia; [2]): 78% | ILS at 25 mg/kg/day (L1210 leukemia; L1210, oral): 12% | ILS at 50 mg/kg/day (L1210 leukemia; L1210, oral): 27%

Nc1ccn([C@@H]2O[C@H](COP(=O)(O)O)[C@@H](O)[C@@H]2O)c(=O)n1 [ara-CMP, arabinofuranosylcytosine-5'-phosphate, reference compound]
ILS at 100 mg/kg/day (L1210 leukemia; [1]): 21% | ILS at 200 mg/kg/day (L1210 leukemia; [2]): 57% | ILS at 400 mg/kg/day (L1210 leukemia; [3]): 73% | ILS at 50 mg/kg/day (L1210 leukemia; L1210, oral): 8%
